Assay results taken from paper PMC7170901, “Design and efficient synthesis of pyrazoline and isoxazole bridged indole C-glycoside hybrids as potential anticancer agents” (Scientific Reports, 2020).

Tested on: MDA-MB-231 (human breast cancer) cell line
Assay: MTT cell viability assay in MDA-MB-231 cells
Format: cell-based
Details: 72 h, MTT; for viability at 10 µM / viability at 25 µM / viability at 50 µM: Homo sapiens, MDA-MB-231, 72 h, read-out: Cell Viability (%) ± SD
Method: IC50 values were determined by plotting values of percent cell viability against concentration of each of these compounds. […] The experiments were performed in triplicates, n = 3 and ± SE value was calculated for each data point.
The human breast cancer cell line MDA-MB-231 were cultured in Dulbecco’s Modified Eagle’s Medium (DMEM) (Gibco, St. Louis, USA) supplemented with 10% heat inactivated FBS (Fetal Bovine Serum, Gibco, USA) and 1% penicillin-streptomycin (Gibco Canada) in humidified CO2 incubator at 37 °C. The cells were maintained as a monolayer in 100 mm culture plate. The cells used for each experiment were of less than 8 passage number. Sub culturing of cells was performed every third day, followed by trypsin EDTA treatment.
Cell viability assay was performed as per standard protocols. […] Ltd, India). In brief, this is a homogeneous, colorimetric method for determining the number of viable cells in proliferation, cytotoxicity or chemosensitivity assays. MTT is bio reduced by cells into a formazan product that is soluble in the tissue culture medium. […] The absorbance of the formazan product at 595 nm was measured directly from 96-well assay plates without additional processing using a multimode plate reader (Bio-Rad) (iMark, India), as absorbance is directly proportional to the number of viable cells in culture. The percentage of viable cells in each group is determined with respect to the untreated control cells.

Structure (SMILES)	Cell Viability (%) ± SD (MDA-MB-231, 10 µM, 10 µM)	Cell Viability (%) ± SD (MDA-MB-231, 25 µM, 25 µM)	Cell Viability (%) ± SD (MDA-MB-231, 50 µM, 50 µM)	viability at 10 µM (MDA-MB-231, 10 µM)	viability at 25 µM (MDA-MB-231, 25 µM)	viability at 50 µM (MDA-MB-231, 50 µM)
O=C(/C=C/c1c[nH]c2ccc([N+](=O)[O-])cc12)C[C@@H]1O[C@H](CO)[C@@H](O)[C@H](O)[C@H]1O [Compound 10, (E)-4-(5-nitro-1H-indol-3-yl)-1-((2S,3R,4R,5S,6R)-3,4,5-trihydroxy-6-(hydroxymethyl)tetrahydro-2H-pyran-2-yl)but-3-en-2-one]	91.40 ± 10.38%	84.49 ± 6.74%	85.37 ± 14.16%			
O=C(/C=C/c1c[nH]c2ccc(Br)cc12)C[C@@H]1O[C@H](CO)[C@@H](O)[C@H](O)[C@H]1O [Compound 11, (E)-4-(5-bromo-1H-indol-3-yl)-1-((2S,3R,4R,5S,6R)-3,4,5-trihydroxy-6-(hydroxymethyl)tetrahydro-2H-pyran-2-yl)but-3-en-2-one]				100 ± 23%	100 ± 8.93%	108 ± 2.89%
O=C(/C=C/c1c[nH]c2ccc(Cl)cc12)C[C@@H]1O[C@H](CO)[C@@H](O)[C@H](O)[C@H]1O [Compound 12, (E)-4-(5-chloro-1H-indol-3-yl)-1-((2S,3R,4R,5S,6R)-3,4,5-trihydroxy-6-(hydroxymethyl)tetrahydro-2H-pyran-2-yl)but-3-en-2-one]				79.2 ± 8.51%	89.8 ± 8.75%	74.8 ± 7.02%
O=C(/C=C/c1c[nH]c2ccccc12)C[C@@H]1O[C@H](CO)[C@H](O)[C@H](O)[C@H]1O [Compound 13, (E)-4-(1H-indol-3-yl)-1-((2S,3R,4R,5R,6R)-3,4,5-trihydroxy-6-(hydroxymethyl)tetrahydro-2H-pyran-2-yl)but-3-en-2-one]				97.6 ± 2.25%	94.2 ± 1.96%	84.2 ± 9.22%
O=C(/C=C/c1c[nH]c2ccc(Br)cc12)C[C@@H]1O[C@H](CO)[C@H](O)[C@H](O)[C@H]1O [Compound 15, (E)-4-(5-bromo-1H-indol-3-yl)-1-((2S,3R,4R,5R,6R)-3,4,5-trihydroxy-6-(hydroxymethyl)tetrahydro-2H-pyran-2-yl)but-3-en-2-one]				125 ± 3.51%	113 ± 23.9%	67.5 ± 17.7%
O=C(/C=C/c1c[nH]c2ccc(Cl)cc12)C[C@@H]1O[C@H](CO)[C@H](O)[C@H](O)[C@H]1O [Compound 16, (E)-4-(5-chloro-1H-indol-3-yl)-1-((2S,3R,4R,5R,6R)-3,4,5-trihydroxy-6-(hydroxylmethyl)tetrahydro-2H-pyran-2-yl)but-3-en-2-one]				75 ± 14.3%	89.6 ± 12.9%	56.7 ± 17.8%
O=C(/C=C/c1c[nH]c2ccccc12)C[C@@H]1O[C@H](CO)[C@@H](O)[C@H](O)[C@@H]1O [Compound 17, (E)-4-(1H-indol-3-yl)-1-((2S,3S,4R,5S,6R)-3,4,5-trihydroxy-6-(hydroxymethyl)tetrahydro-2H-pyran-2-yl)but-3-en-2-one]				84.1 ± 4.09%	80.5 ± 2.58%	79.4 ± 10.4%
O=C(/C=C/c1c[nH]c2ccc([N+](=O)[O-])cc12)C[C@@H]1O[C@H](CO)[C@@H](O)[C@H](O)[C@H]1O [Compound 18, (E)-4-(5-nitro-1H-indol-3-yl)-1-((2S,3R,4R,5S,6R)-3,4,5-trihydroxy-6-(hydroxylmethyl)tetrahydro-2H-pyran-2-yl) but-3-en-2-one]				71.7 ± 28.4%	78.5 ± 6.73%	69.8 ± 20.4%
OC[C@H]1O[C@@H](CC2=NNC(c3c[nH]c4ccccc34)C2)[C@H](O)[C@@H](O)[C@@H]1O (stereo partly drawn) [Compound 21, (2S,3R,4R,5S,6R)-2-((5-(1H-indol-3-yl)-4,5-dihydro-1H-pyrazol-3-yl)methyl)-6-(hydroxy-methyl)tetrahydro-2H-pyran-3,4,5-triol]				73.5 ± 2.43%	76.8 ± 2.43%	75 ± 2.62%
O=[N+]([O-])c1ccc2[nH]cc(C3CC(C[C@@H]4O[C@H](CO)[C@@H](O)[C@H](O)[C@H]4O)=NN3)c2c1 (stereo partly drawn) [Compound 22, (2R,3S,4R,5R,6S)-2-(hydroxymethyl)-6-((5-(5-nitro-1H-indol-3-yl)-4,5-dihydro-1H-pyrazol-3-yl)methyl)tetrahydro-2H-pyran-3,4,5-triol]				70.4 ± 13%	68.6 ± 11.1%	70.3 ± 6.17%
OC[C@H]1O[C@@H](CC2=NNC(c3c[nH]c4ccc(Br)cc34)C2)[C@H](O)[C@@H](O)[C@@H]1O (stereo partly drawn) [Compound 23, (2 S,3 R,4 R,5 S,6 R)-2-((5-(5-bromo-1H-indol-3-yl)-4,5-dihydro-1H-pyrazol-3-yl)methyl)-6-(hydroxymethyl)tetrahydro-2H-pyran-3,4,5-triol]				105 ± 11.3%	88.8 ± 2.22%	81.5 ± 5.45%
OC[C@H]1O[C@@H](CC2=NNC(c3c[nH]c4ccc(Cl)cc34)C2)[C@H](O)[C@@H](O)[C@@H]1O (stereo partly drawn) [Compound 24, (2 S,3 R,4 R,5 S,6 R)-2-((5-(5-chloro-1H-indol-3-yl)-4,5-dihydro-1H-pyrazol-3-yl)methyl)-6-(hydroxymethyl)tetrahydro-2H-pyran-3,4,5-triol]				82.2 ± 3.5%	77.5 ± 8.96%	77.7 ± 2.56%
O=[N+]([O-])c1ccc2[nH]cc(C3CC(C[C@@H]4O[C@H](CO)[C@H](O)[C@H](O)[C@H]4O)=NN3)c2c1 (stereo partly drawn) [Compound 26, (2 S,3 R,4 R,5 R,6 R)-2-((5-(5-nitro-1H-indol-3-yl)-4,5-dihydro-1H-pyrazol-3-yl)methyl)-6-(hydroxymethyl)tetrahydro-2H-pyran-3,4,5-triol]				101 ± 9.67%	98.25 ± 0.34%	99.5 ± 1.88%
OC[C@H]1O[C@@H](CC2=NNC(c3c[nH]c4ccc(Br)cc34)C2)[C@H](O)[C@@H](O)[C@H]1O (stereo partly drawn) [Compound 27, (2 S,3 R,4 R,5 R,6 R)-2-((5-(5-bromo-1H-indol-3-yl)-4,5-dihydro-1H-pyrazol-3-yl)methyl)-6-(hydroxymethyl)tetrahydro-2H-pyran-3,4,5-triol]				90 ± 7.7%	90.8 ± 7.09%	97.7 ± 10.1%
OC[C@H]1O[C@@H](CC2=NNC(c3c[nH]c4ccc(Cl)cc34)C2)[C@H](O)[C@@H](O)[C@H]1O (stereo partly drawn) [Compound 28, (2 S,3 R,4 R,5 R,6 R)-2-((5-(5-chloro-1H-indol-3-yl)-4,5-dihydro-1H-pyrazol-3-yl)methyl)-6-(hydroxymethyl)tetrahydro-2H-pyran-3,4,5-triol]				99.5 ± 10.2%	95.2 ± 13.6%	63.4 ± 17.5%
OC[C@H]1O[C@@H](CC2=NNC(c3c[nH]c4ccccc34)C2)[C@@H](O)[C@@H](O)[C@@H]1O (stereo partly drawn) [Compound 29, (2 S,3 S,4 R,5 S,6 R)-2-((5-(1H-indol-3-yl)-4,5-dihydro-1H-pyrazol-3-yl)methyl)-6-(hydroxy-methyl)tetrahydro-2H-pyran-3,4,5-triol]				82.2 ± 7.65%	76.6 ± 6.58%	73.5 ± 8.45%
O=[N+]([O-])c1ccc2[nH]cc(C3CC(C[C@@H]4O[C@H](CO)[C@@H](O)[C@H](O)[C@@H]4O)=NN3)c2c1 (stereo partly drawn) [Compound 30, (2 S,3 S,4 R,5 S,6 R)-2-((5-(5-nitro-1H-indol-3-yl)-4,5-dihydro-1H-pyrazol-3-yl)methyl)-6-(hydroxymethyl)tetrahydro-2H-pyran-3,4,5-triol]				93.8 ± 5.85%	92.1 ± 8%	88 ± 1.1%
OC[C@H]1O[C@@H](CC2=NNC(c3c[nH]c4ccc(Br)cc34)C2)[C@@H](O)[C@@H](O)[C@@H]1O (stereo partly drawn) [Compound 31, (2 S,3 S,4 R,5 S,6 R)-2-((5-(5-bromo-1H-indol-3-yl)-4,5-dihydro-1H-pyrazol-3-yl)methyl)-6-(hydroxymethyl)tetrahydro-2H-pyran-3,4,5-triol]				91.4 ± 3.62%	90.1 ± 6.77%	87.6 ± 6.27%
OC[C@H]1O[C@@H](CC2=NNC(c3c[nH]c4ccc(Cl)cc34)C2)[C@@H](O)[C@@H](O)[C@@H]1O (stereo partly drawn) [Compound 32, (2 S,3 S,4 R,5 S,6 R)-2-((5-(5-chloro-1H-indol-3-yl)-4,5-dihydro-1H-pyrazol-3-yl)methyl)-6-(hydroxymethyl)tetrahydro-2H-pyran-3,4,5-triol]				74.6 ± 4.7%	78.5 ± 4.44%	66.5 ± 7.27%
OC[C@H]1O[C@@H](Cc2cc(-c3c[nH]c4ccccc34)on2)[C@H](O)[C@@H](O)[C@@H]1O [Compound 33, (2 S,3 R,4 R,5 S,6 R)-2-((5-(1H-indol-3-yl)isoxazol-3-yl)methyl)-6-(hydroxymethyl) tetrahydro-2H-pyran-3,4,5-triol]				104 ± 12.7%	106 ± 7.4%	92.6 ± 15.2%
OC[C@H]1O[C@@H](Cc2cc(-c3c[nH]c4ccc(Br)cc34)on2)[C@H](O)[C@@H](O)[C@@H]1O [Compound 35, (2 S,3 R,4 R,5 S,6 R)-2-((5-(5-bromo-1H-indol-3-yl)isoxazol-3-yl)methyl)-6-(hydroxy-methyl)tetrahydro-2H-pyran-3,4,5-triol]				95.5 ± 4.91%	95.3 ± 3.6%	93.9 ± 9.08%
